Test results reported in ChEMBL document CHEMBL1201862, “PubChem BioAssay data set” (2004).
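Briefly, cells in 96-well plates were exposed to five compound concentrations for 48 h, and endpoints were estimated by linear interpolation. GI50 marks 50% less growth.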 Activity calls are given as the source filed them. No stated cut-off is given here; in the data, active = GI50 up to about 1.1 µM and inactive = higher.

Key:
Assay in all cases: DTP human tumour cell line panel, 48 h
HCC 2998 = test system: HCC 2998
SF-295 = test system: SF-295
SNB-75 = test system: SNB-75
HL-60 = test system: HL-60
OVCAR-3 = test system: OVCAR-3
BT-549 = test system: BT-549
HCT-15 = test system: HCT-15
NCI-H460 = test system: NCI-H460
SR = test system: SR
KM12 = test system: KM12
SK-OV-3 = test system: SK-OV-3
786-0 = test system: 786-0
MCF7 = test system: MCF7
PC-3 = test system: PC-3
CCRF-CEM = test system: CCRF-CEM
MOLT-4 = test system: MOLT-4
UACC-257 = test system: UACC-257
SK-MEL-2 = test system: SK-MEL-2
NCI/ADR-RES = test system: NCI/ADR-RES
HT-29 = test system: HT-29
Hs-578T = test system: Hs-578T
HOP-62 = test system: HOP-62
A549 = test system: A549
OVCAR-5 = test system: OVCAR-5
RXF 393 = test system: RXF 393
IGROV-1 = test system: IGROV-1
CAKI-1 = test system: CAKI-1
UACC-62 = test system: UACC-62
SN12C = test system: SN12C
A498 = test system: A498
LOX IMVI = test system: LOX IMVI
OVCAR-4 = test system: OVCAR-4
HCT-116 = test system: HCT-116
SF-539 = test system: SF-539
SK-MEL-5 = test system: SK-MEL-5
TK-10 = test system: TK-10
M14 = test system: M14
DU-145 = test system: DU-145
SK-MEL-28 = test system: SK-MEL-28
SNB-19 = test system: SNB-19
K562 = test system: K562
U-251 = test system: U-251
MDA-MB-231 = test system: MDA-MB-231
T47D = test system: T47D
RPMI-8226 = test system: RPMI-8226
NCI-H23 = test system: NCI-H23
Malme-3M = test system: Malme-3M
MDA-N = test system: MDA-N
SF-268 = test system: SF-268
ACHN = test system: ACHN
MDA-MB-435 = test system: MDA-MB-435
HOP-92 = test system: HOP-92
UO-31 = test system: UO-31
SW-620 = test system: SW-620
COLO 205 = test system: COLO 205
NCI-H522 = test system: NCI-H522
OVCAR-8 = test system: OVCAR-8
EKVX = test system: EKVX
NCI-H226 = test system: NCI-H226

With `Cc1c(/N=N/c2ccccc2)c(C)n(C2OC(CO)C(O)C(O)C2O)c(=S)c1C#N` (stereo not drawn) the GI50 (HCC 2998) was 21.8 µM (inactive), the GI50 (SF-295) was 34.5 µM (inactive) and the GI50 (SNB-75) was 42.2 µM (inactive). For the same molecule, the GI50 (HL-60) was 34.1 µM (inactive), the GI50 (OVCAR-3) was 21.6 µM (inactive) and the GI50 (BT-549) was 19.9 µM (inactive). The GI50 (HCT-15) was 28.9 µM, the GI50 (NCI-H460) was 31.3 µM (inactive) and the GI50 (SR) was 21.4 µM (inactive). The GI50 (KM12) was 33.5 µM (inactive), the GI50 (SK-OV-3) was 34 µM (inactive) and the GI50 (786-0) was 31.6 µM (inactive). The GI50 (MCF7) was 22.8 µM (inactive), the GI50 (PC-3) was 24 µM (inactive) and the GI50 (CCRF-CEM) was 22.5 µM (inactive). The GI50 (MOLT-4) was 20.8 µM (inactive), the GI50 (UACC-257) was 33.2 µM (inactive) and the GI50 (SK-MEL-2) was 16.2 µM (inactive). The GI50 (NCI/ADR-RES) was 42.4 µM (inactive), the GI50 (HT-29) was 32.7 µM (inactive) and the GI50 (Hs-578T) was 1 µM (active). For the same molecule, the GI50 (HOP-62) was 25.5 µM (inactive), the GI50 (A549) was 35.5 µM (inactive) and the GI50 (OVCAR-5) was 15.1 µM (inactive). The GI50 (RXF 393) was 33 µM (inactive), the GI50 (IGROV-1) was 37.7 µM (inactive) and the GI50 (CAKI-1) was 40.2 µM (inactive). For the same molecule, the GI50 (UACC-62) was 1.15 µM (inactive), the GI50 (SN12C) was 20.7 µM (inactive) and the GI50 (A498) was 34.9 µM (inactive). For the same molecule, the GI50 (LOX IMVI) was 22.6 µM (inactive), the GI50 (OVCAR-4) was 45.8 µM (inactive) and the GI50 (HCT-116) was 21.1 µM (inactive). For the same molecule, the GI50 (SF-539) was 24.1 µM (inactive), the GI50 (SK-MEL-5) was 12.3 µM (inactive) and the GI50 (TK-10) was 27 µM (inactive). For the same molecule, the GI50 (M14) was 25.6 µM (inactive), the GI50 (DU-145) was 25.1 µM (inactive) and the GI50 (SK-MEL-28) was 32.7 µM (inactive). The GI50 (SNB-19) was 34.8 µM (inactive), the GI50 (K562) was 24.4 µM (inactive) and the GI50 (U-251) was 23.2 µM (inactive). The GI50 (MDA-MB-231) was 45.3 µM (inactive), the GI50 (T47D) was 39.2 µM (inactive) and the GI50 (RPMI-8226) was 40.2 µM (inactive). The GI50 (NCI-H23) was 27.3 µM (inactive), the GI50 (Malme-3M) was 32.6 µM (inactive) and the GI50 (MDA-N) was 19.9 µM (inactive). For the same molecule, the GI50 (SF-268) was 17 µM (inactive), the GI50 (ACHN) was 30.5 µM (inactive) and the GI50 (MDA-MB-435) was 13.1 µM (inactive). The GI50 (HOP-92) was 16.6 µM (inactive), the GI50 (UO-31) was 26.2 µM (inactive) and the GI50 (SW-620) was 29.4 µM (inactive). The GI50 (COLO 205) was 42 µM (inactive).
For `COC(=O)CCC(C)[C@H]1CCC2C3C(C[C@H](OC(C)=O)[C@@]21C)[C@@]1(C)CCC2(C[C@H]1C[C@H]3OC(C)=O)OOC1(CCCC1)OO2` (stereo partly drawn), the GI50 (HCC 2998) was > 100 µM (inactive), the GI50 (SF-295) was 83.6 µM (inactive) and the GI50 (SNB-75) was 96.4 µM (inactive). The GI50 (HL-60) was 5.02 µM (inactive), the GI50 (OVCAR-3) was 5.56 µM (inactive) and the GI50 (BT-549) was 46 µM (inactive). For the same molecule, the GI50 (HCT-15) was 27.5 µM, the GI50 (NCI-H460) was 6.82 µM (inactive) and the GI50 (SR) was 3.02 µM (inactive). For the same molecule, the GI50 (KM12) was 23.3 µM (inactive), the GI50 (SK-OV-3) was > 100 µM (inactive) and the GI50 (NCI-H522) was 23.4 µM (inactive). The GI50 (786-0) was 29.6 µM (inactive), the GI50 (MCF7) was 31.5 µM (inactive) and the GI50 (OVCAR-8) was 34.4 µM (inactive). The GI50 (EKVX) was 11.1 µM (inactive), the GI50 (PC-3) was 4.47 µM (inactive) and the GI50 (CCRF-CEM) was 7.89 µM (inactive). For the same molecule, the GI50 (MOLT-4) was 4.28 µM (inactive), the GI50 (UACC-257) was 39.2 µM (inactive) and the GI50 (SK-MEL-2) was > 100 µM (inactive). The GI50 (NCI/ADR-RES) was 84.5 µM (inactive), the GI50 (HT-29) was 34.4 µM (inactive) and the GI50 (Hs-578T) was 16.5 µM (inactive). For the same molecule, the GI50 (HOP-62) was 10.3 µM (inactive), the GI50 (A549) was 12.9 µM (inactive) and the GI50 (OVCAR-5) was > 100 µM (inactive). The GI50 (RXF 393) was 63.1 µM (inactive), the GI50 (IGROV-1) was 5.6 µM (inactive) and the GI50 (CAKI-1) was 12.2 µM (inactive). The GI50 (SN12C) was 42.5 µM (inactive), the GI50 (A498) was > 100 µM (inactive) and the GI50 (LOX IMVI) was 7 µM (inactive). For the same molecule, the GI50 (OVCAR-4) was 12.6 µM (inactive), the GI50 (HCT-116) was 6.43 µM (inactive) and the GI50 (SF-539) was > 100 µM (inactive). The GI50 (SK-MEL-5) was 20.2 µM (inactive), the GI50 (TK-10) was 48.3 µM (inactive) and the GI50 (M14) was > 100 µM (inactive). The GI50 (DU-145) was 27 µM (inactive), the GI50 (SK-MEL-28) was > 100 µM (inactive) and the GI50 (SNB-19) was > 100 µM (inactive). For the same molecule, the GI50 (NCI-H226) was 27.9 µM (inactive), the GI50 (K562) was 6.3 µM (inactive) and the GI50 (U-251) was 8.93 µM (inactive). For the same molecule, the GI50 (MDA-MB-231) was 43.3 µM (inactive), the GI50 (T47D) was 7.19 µM (inactive) and the GI50 (RPMI-8226) was 2.47 µM (inactive). For the same molecule, the GI50 (NCI-H23) was 9.18 µM (inactive), the GI50 (Malme-3M) was > 100 µM (inactive) and the GI50 (MDA-N) was 32.4 µM (inactive). The GI50 (SF-268) was 25.6 µM (inactive), the GI50 (ACHN) was 10.4 µM (inactive) and the GI50 (MDA-MB-435) was 29.9 µM (inactive). The GI50 (HOP-92) was 9.62 µM (inactive), the GI50 (UO-31) was 10.1 µM (inactive) and the GI50 (SW-620) was 51.9 µM (inactive). The GI50 (COLO 205) was 30.4 µM (inactive).
